The values below come from patent publication US20260176320A1, “MODULATORS OF G-PROTEIN COUPLED RECEPTORS” (priority 2018, published 2026).

Structures are written as SMILES. Read-outs that look alike come from different tables or passages of the source. Numbered stars: 1 amine (or outer) side, 2 acyl side, 3 side chain; on linkers, the order of the positions; unused ones are H or OH. Side chains are listed from the residue outwards. Peptide text beside a SMILES is read from it. * marks the point of attachment. γGlu = O=C(O)[C@H](CCC(=O)[*:2])N[*:1]; X2 = O=C(CSCC(=O)*)NCCN1C(=O)CSC1=O; Palmitoyl = CCCCCCCCCCCCCCCC(=O)*

By Emax is commonly meant the maximal effect, on the per cent scale that the assay sets.

The target of one experiment is T1, GIP-R (Homo sapiens, UniProt P48546).
T1 sequence (P48546 22-466): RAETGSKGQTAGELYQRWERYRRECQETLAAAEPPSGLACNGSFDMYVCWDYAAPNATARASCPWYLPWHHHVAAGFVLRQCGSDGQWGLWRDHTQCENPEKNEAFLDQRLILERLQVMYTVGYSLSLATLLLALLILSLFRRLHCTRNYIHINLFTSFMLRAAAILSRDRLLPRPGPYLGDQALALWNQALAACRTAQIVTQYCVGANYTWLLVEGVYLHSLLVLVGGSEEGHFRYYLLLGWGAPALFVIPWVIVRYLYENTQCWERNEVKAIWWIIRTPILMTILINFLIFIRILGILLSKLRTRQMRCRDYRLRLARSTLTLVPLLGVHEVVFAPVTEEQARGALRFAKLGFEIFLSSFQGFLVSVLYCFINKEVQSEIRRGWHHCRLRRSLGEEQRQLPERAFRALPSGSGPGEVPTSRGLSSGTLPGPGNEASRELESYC
As to the kind of experiment: HitHunter cAMP assay (GIP-R). The format is cell-based. Particulars: cAMP; for Emax: read-out: (Emax) GIP-R. Put shortly:
(§1)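 cAMP, luminescence read: agonist 22-pt 2× dilution in DMSO, duplicate, 30 min RT on 10,000 cells/well in 1×HBSS/10 mM HEPES/625 μM IBMX/0.2% BSA; anti-cAMP reagent 1 h RT dark, then O/N RT dark before read.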
(Cyclic AMP is a second messenger, typically raised through Gs and lowered through Gi signalling.)

The next experiment addresses GLP-1R (Homo sapiens, UniProt P43220). As to the kind of experiment: HitHunter cAMP assay (GLP-1R). The format is cell-based. The conditions noted are these: cAMP; for Emax: read-out: (Emax) GLP-1R. The gist of the method: as §1

Sequence of GLP-1R (P43220 24-463): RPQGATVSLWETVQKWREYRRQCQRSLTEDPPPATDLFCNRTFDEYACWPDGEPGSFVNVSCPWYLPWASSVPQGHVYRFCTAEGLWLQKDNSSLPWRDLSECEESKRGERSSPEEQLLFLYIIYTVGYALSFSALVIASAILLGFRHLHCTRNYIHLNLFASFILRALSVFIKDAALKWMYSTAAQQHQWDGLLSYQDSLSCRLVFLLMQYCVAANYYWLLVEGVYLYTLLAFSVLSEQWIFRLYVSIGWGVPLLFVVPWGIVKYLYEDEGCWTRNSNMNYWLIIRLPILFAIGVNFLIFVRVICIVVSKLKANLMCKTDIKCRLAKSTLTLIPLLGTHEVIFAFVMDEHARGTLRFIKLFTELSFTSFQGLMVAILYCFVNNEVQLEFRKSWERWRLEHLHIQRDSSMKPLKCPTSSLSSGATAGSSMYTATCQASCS

Consider `CCCCCCCCCCCCCCCC(=O)N[C@@H](CCC(=O)NCCCC[C@H](NC(=O)[C@H](CO)NC(=O)[C@@H]1CCCN1C(=O)[C@@H]1CCCN1C(=O)[C@@H]1CCCN1C(=O)[C@H](C)NC(=O)CNC(=O)[C@H](CO)NC(=O)[C@H](CO)NC(=O)[C@@H]1CCCN1C(=O)CNC(=O)[C@H](CCCNC(=N)N)NC(=O)[C@H](CCC(N)=O)NC(=O)[C@H](C)NC(=O)[C@H](CC(C)C)NC(=O)[C@H](CC(C)C)NC(=O)[C@H](Cc1c[nH]c2ccccc12)NC(=O)[C@H](CC(N)=O)NC(=O)[C@@H](NC(=O)[C@H](Cc1ccccc1)NC(=O)[C@H](CC(=O)O)NC(=O)[C@H](CCC(N)=O)NC(=O)[C@H](CCC(N)=O)NC(=O)[C@H](CCCNC(=N)N)NC(=O)[C@@H](NC(=O)[C@H](CCCCN)NC(=O)[C@H](CC(=O)O)NC(=O)[C@H](CCSC)NC(=O)[C@H](C)NC(=O)[C@@H](NC(=O)[C@H](CO)NC(=O)[C@H](Cc1ccc(O)cc1)NC(=O)[C@H](CC(=O)O)NC(=O)[C@H](CO)NC(=O)[C@@H](NC(=O)[C@H](Cc1ccccc1)NC(=O)[C@@H](NC(=O)CNC(=O)[C@H](CCC(=O)O)NC(=O)CSCC(=O)NCCN1C(=O)CSC1=O)[C@@H](C)O)[C@@H](C)CC)[C@@H](C)CC)[C@@H](C)CC)C(C)C)C(N)=O)C(=O)O` [Compound 76] (X2-EGTFISDYSIAMDKIRQQDFVNWLLAQRGPSSGAPPPSK([γGlu-Palmitoyl])-NH2), for which the Emax at GIP-R (Table 3) came out at 89%; at GIP-R (Table 3A), 89%; at GLP-1R (Table 3) it was 95%; on GLP-1R (Table 3A), 95%. The EC50 at GIP-R (Table 3, read-out: EC50 GIP-R/nM) was in the range of 0.1 to 1 nM; on GIP-R (Table 3A, read-out: EC50 GIP-R/nM), 0.1 to 1 nM; on GLP-1R (Table 3, read-out: EC50 GLP-1R/nM) it was 1 to 10 nM; at GLP-1R (Table 3A, read-out: EC50 GLP-1R/nM), 1 to 10 nM.
Take `CCCCCCCCCCCCCCCC(=O)N[C@@H](CCC(=O)NCCCC[C@H](NC(=O)[C@H](CO)NC(=O)[C@@H]1CCCN1C(=O)[C@@H]1CCCN1C(=O)[C@@H]1CCCN1C(=O)[C@H](C)NC(=O)CNC(=O)[C@H](CO)NC(=O)[C@H](CO)NC(=O)[C@@H]1CCCN1C(=O)CNC(=O)CNC(=O)[C@H](C)NC(=O)[C@H](CC(C)C)NC(=O)[C@H](CC(C)C)NC(=O)[C@H](Cc1c[nH]c2ccccc12)NC(=O)[C@H](CC(N)=O)NC(=O)[C@@H](NC(=O)[C@H](Cc1ccccc1)NC(=O)[C@H](CCC(=O)O)NC(=O)C(C)(C)NC(=O)[C@H](C)NC(=O)[C@H](C)NC(=O)[C@H](CCC(N)=O)NC(=O)[C@H](CCCCN)NC(=O)[C@H](CC(=O)O)NC(=O)[C@H](CC(C)C)NC(=O)[C@H](Cc1ccc(O)cc1)NC(=O)[C@@H](NC(=O)[C@H](CO)NC(=O)[C@H](Cc1ccc(O)cc1)NC(=O)[C@H](CC(=O)O)NC(=O)[C@H](CO)NC(=O)[C@@H](NC(=O)[C@H](Cc1ccccc1)NC(=O)[C@@H](NC(=O)CNC(=O)[C@H](CCC(=O)O)NC(=O)CSCC(=O)NCCN1C(=O)C[C@H](O)C1=O)[C@@H](C)O)[C@@H](C)O)[C@@H](C)CC)C(C)C)C(N)=O)C(=O)O` [Compound 78]: the EC50 on GIP-R (EC50 GIP-R/nM, Table 3) is 1 to 10 nM; on GIP-R (EC50 GIP-R/nM, Table 3A), 1 to 10 nM; on GLP-1R (EC50 GLP-1R/nM, Table 3), 0.1 to 1 nM; at GLP-1R (EC50 GLP-1R/nM, Table 3A), 0.1 to 1 nM. In addition, the Emax on GIP-R (Table 3) stood at 58%; at GIP-R (Table 3A) it was 58%; at GLP-1R (Table 3) it was 94%; on GLP-1R (Table 3A), 94%.
